Test results taken from patent publication US20240342201A1, “ASYMMETRIC GPR84 ANTAGONIST AND USE THEREOF” (priority 2021, published 2024).
Read-outs that look alike come from different tables or passages of the source.

Legend:
[1] = Tissue distribution and oral exposure in ICR mice (LC-MS); format: in vivo; conditions: oral 5 mg/kg; for AUC(0-t): mouse
Procedure: The tissue distribution experiment of compounds XYF573c and LSX472a of the present invention in ICR mice was carried out, and their distribution in plasma and organs and oral exposure (AUC0-8h) were compared.
ICR mice were purchased from Shanghai Experimental Animal Research Center.
The concentrations of the compounds in plasma and various organs of ICR mice were detected by LC-MS.
During the experiment, the mice were fasted for more than 12 hours, had free access to water, and provided with food 2 hours after administration.
Both compounds XYF573c and LSX472a were administered orally, the dose was 5 mg/kg, and the solvent was DMSO/0.5% HPMC (5/95, v/v), N=3.
At 0.5 h, 2 h and 8 h after oral administration, about 20 μL of mouse heart blood, portal vein plasma or 20 mg of liver, lung, and ileum tissues were taken in clean centrifuge tubes, 200 μL of MeOH/ACN (50/50, v/v) was added and spun in a vortex mixer for 1 min. The mixtures were centrifuged at 15,000 rpm for 5 min and 20 μL of supernatants were mixed with 20 μL of ACN/water (1/1, v/v) and quantified by LC-MS.
The values of AUC0-8h were calculated by trapezoidal method based on the concentrations of the compound at 0.5 h, 2 h and 8 h.

[2] = target: T1, GPR120 (Homo sapiens, UniProt Q5NUL3); conditions: cited from earlier work
T1 sequence (Q5NUL3 1-361): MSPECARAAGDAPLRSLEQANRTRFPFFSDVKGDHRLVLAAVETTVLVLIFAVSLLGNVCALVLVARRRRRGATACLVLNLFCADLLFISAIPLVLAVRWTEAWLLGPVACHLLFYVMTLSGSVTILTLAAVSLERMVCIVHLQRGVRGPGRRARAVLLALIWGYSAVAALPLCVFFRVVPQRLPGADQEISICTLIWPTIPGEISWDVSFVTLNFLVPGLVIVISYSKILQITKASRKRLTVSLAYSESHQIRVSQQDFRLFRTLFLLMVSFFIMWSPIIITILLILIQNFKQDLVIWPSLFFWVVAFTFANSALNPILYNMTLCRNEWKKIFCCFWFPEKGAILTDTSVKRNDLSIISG

[3] = target: GPR40 (Homo sapiens, UniProt O14842); conditions: cited from earlier work
GPR40, sequence (O14842 whole entry, species assumed): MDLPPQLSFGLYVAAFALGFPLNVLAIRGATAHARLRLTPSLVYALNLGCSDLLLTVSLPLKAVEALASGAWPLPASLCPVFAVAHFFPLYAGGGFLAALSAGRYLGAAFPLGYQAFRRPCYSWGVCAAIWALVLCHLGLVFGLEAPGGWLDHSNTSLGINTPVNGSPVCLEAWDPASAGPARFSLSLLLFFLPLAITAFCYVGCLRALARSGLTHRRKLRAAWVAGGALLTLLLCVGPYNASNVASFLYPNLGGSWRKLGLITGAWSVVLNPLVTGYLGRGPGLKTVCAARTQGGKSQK

[4] = target: GPR84 (Homo sapiens, UniProt Q9NQS5); conditions: cited from earlier work
GPR84, sequence (Q9NQS5 whole entry, species assumed): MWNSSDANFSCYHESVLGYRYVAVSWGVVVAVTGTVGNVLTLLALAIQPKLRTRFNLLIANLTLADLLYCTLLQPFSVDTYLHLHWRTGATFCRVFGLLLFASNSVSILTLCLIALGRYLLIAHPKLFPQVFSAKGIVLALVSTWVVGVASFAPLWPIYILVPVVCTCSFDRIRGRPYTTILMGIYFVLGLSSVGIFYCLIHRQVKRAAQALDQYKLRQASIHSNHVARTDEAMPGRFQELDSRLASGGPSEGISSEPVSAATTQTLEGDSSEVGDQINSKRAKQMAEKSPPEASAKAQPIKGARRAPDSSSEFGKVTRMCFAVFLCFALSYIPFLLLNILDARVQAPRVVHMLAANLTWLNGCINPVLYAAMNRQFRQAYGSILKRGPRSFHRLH

[5] = test system: inflammatory bowel disease; conditions: trial terminated; cited from earlier work

SMILES: COc1cccc2c1Sc1ccccc1C=C2OP(=O)(O)O[C@@H]1C[C@@H]2CC[C@@]1(C)C2(C)C [LSX472a]
- AUC(0-t) ([1]; heart plasma, read-out: AUC0-8h, Heart plasma): 7750 ng·h/mL
- AUC(0-t) ([1]; portal vein plasma, read-out: AUC0-8h, Portal vein plasma): 8820 ng·h/mL
- exposure in the intestinal tract (such as Ileum) compared to XYF573c [1]: significantly increased
- AUC0-8h, Ileum ([1]; ileum): 62902.60 ng·h/g
- AUC0-8h, Liver ([1]; liver): 4387.83 ng·h/g
- AUC0-8h, Lung ([1]; lung): 745.34 ng·h/g
- increase in oral exposure (Plasma AUC0-8h) compared to XYF573c ([1]; plasma): 13 fold

SMILES: CCCCCc1cc(CCCCC)cc(CC(=O)[O-])c1.[Na+] [PBI-4547, 3,5-di-n-pentyl phenylacetate sodium]
- agonistic activity on GPR120 [2]: agonistic activity
- agonistic activity on GPR40 [3]: agonistic activity
- antagonistic activity on GPR84 [4]: at the micromolar level

SMILES: O=c1nc(OC[C@@H]2COCCO2)cc2n1CCc1cc(C#CC3CC3)ccc1-2 [GLPG1205]
- efficacy in phase II clinical study versus placebo [5]: lack of significant difference in efficacy from the placebo group
